# Measured values: patent US8436012B2, “Imidazopyridin-2-one derivatives” (Daiichi Sankyo Company, Limited, priority 2008, dated 2013)
# Assays:
# human mTOR = target: T1, human mTOR (Homo sapiens, UniProt P42345); assay: mTOR Kinase Activity Inhibition Test; format: biochemical; conditions: His-tagged mTOR (1362C), biotinylated peptide substrate, ATP, 3 hours at room temperature, fluorescence resonance energy transfer 665 nm/620 nm; read-out: IC50 value of mTOR enzyme inhibitory activity
# T1 construct: the portion corresponding to 1362-2549aa at the C terminus of human mTOR; made in house
# Procedure, shortened: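 Purified His-tagged human mTOR (1362–2549aa, from HEK293) was used with biotinylated peptide (8 μg/mL in enzyme solution) in HEPES pH 7.5 with 20 mM MnCl2. Compounds were diluted in 20 μM ATP solution, and the reaction ran 3 h at RT. Phospho-S6K(Thr389) HTRF was read as the 665/620 nm ratio, and IC50 came from % inhibition versus controls.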
# WM-266-4 cells = assay: Cell Proliferation Inhibitory Test; format: cell-based; conditions: Homo sapiens, 72 h, cultured three days with test compound, MTT, read-out: 50% cell proliferation inhibitory activity (GI50 value)
# Procedure, shortened: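 Cells cultured overnight, then exposed to serially diluted compound for three days; cell amount read by MTT. GI50 solved from 100×[(T−T0)/(C−T0)]=50, with T0 the value at time of compound addition and C the untreated three-day control.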
# T1 sequence (P42345 1362-2549): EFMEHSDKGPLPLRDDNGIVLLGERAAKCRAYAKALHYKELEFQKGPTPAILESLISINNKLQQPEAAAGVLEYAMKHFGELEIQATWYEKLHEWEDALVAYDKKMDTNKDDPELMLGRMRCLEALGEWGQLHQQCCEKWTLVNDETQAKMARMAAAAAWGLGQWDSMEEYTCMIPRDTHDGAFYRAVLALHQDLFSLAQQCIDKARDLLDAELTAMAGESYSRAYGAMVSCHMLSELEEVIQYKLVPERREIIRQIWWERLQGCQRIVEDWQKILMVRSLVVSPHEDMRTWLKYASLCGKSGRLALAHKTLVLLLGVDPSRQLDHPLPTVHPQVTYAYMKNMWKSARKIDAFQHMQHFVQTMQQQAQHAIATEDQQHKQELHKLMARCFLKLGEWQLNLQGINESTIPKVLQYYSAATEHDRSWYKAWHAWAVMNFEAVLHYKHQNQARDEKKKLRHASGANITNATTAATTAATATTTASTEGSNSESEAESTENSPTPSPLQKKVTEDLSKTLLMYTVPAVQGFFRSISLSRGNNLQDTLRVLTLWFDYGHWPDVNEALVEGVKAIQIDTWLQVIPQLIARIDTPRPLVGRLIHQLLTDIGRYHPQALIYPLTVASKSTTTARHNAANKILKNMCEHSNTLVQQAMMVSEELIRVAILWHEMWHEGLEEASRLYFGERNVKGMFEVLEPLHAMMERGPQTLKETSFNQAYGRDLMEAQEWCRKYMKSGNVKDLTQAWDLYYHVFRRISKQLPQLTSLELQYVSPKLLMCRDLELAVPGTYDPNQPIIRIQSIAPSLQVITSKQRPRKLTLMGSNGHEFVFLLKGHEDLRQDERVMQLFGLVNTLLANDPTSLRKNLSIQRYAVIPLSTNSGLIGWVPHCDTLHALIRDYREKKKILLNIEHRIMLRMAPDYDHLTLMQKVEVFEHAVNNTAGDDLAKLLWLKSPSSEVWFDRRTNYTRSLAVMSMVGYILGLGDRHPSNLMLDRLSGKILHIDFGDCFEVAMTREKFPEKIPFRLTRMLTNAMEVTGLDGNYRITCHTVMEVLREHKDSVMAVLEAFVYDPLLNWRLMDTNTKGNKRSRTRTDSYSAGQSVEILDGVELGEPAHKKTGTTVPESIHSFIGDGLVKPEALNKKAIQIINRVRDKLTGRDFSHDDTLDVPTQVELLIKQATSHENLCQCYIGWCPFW
Compound,IC50 (human mTOR),GI50 (WM-266-4 cells)
"CNC(=O)c1c[nH]c2ncc(-c3cnc4[nH]c(=O)n(CC5CCOCC5)c4c3)cc12 [Example 94, N-Methyl-5-[2-oxo-1-(tetrahydro-2H-pyran-4-ylmethyl)-2,3-dihydro-1H-imidazo[4,5-b]pyridin-6-yl]-1H-pyrrolo[2,3-b]pyridine-3-carboxamide]",100 to 5000 nM,3000 to 25000 nM
"Cc1c(-c2ccc3[nH]ccc3c2)cnc2[nH]c(=O)n(CC3CCOCC3)c12 [Example 8, 6-(1H-Indol-5-yl)-7-methyl-1-(tetrahydro-2H-pyran-4-ylmethyl)-1,3-dihydro-2H-imidazo[4,5-b]pyridin-2-one]",100 to 5000 nM,3000 to 25000 nM
"O=c1[nH]c2ncc(-c3cnc4cc[nH]c4c3)cc2n1CC1CCOCC1 [Example 88, 6-(1H-Pyrrolo[3,2-b]pyridin-6-yl)-1-(tetrahydro-2H-pyran-4-ylmethyl)-1,3-dihydro-2H-imidazo[4,5-b]pyridin-2-one]",100 to 5000 nM,< 3000 nM
"O=c1[nH]c2ncc(-c3cnc4[nH]ccc4n3)cc2n1CC1CCOCC1 [Example 75, 6-(5H-Pyrrolo[2,3-b]pyrazin-2-yl)-1-(tetrahydro-2H-pyran-4-ylmethyl)-1,3-dihydro-2H-imidazo[4,5-b]pyridin-2-one]",50 to 100 nM,< 3000 nM
"CCOCc1cc2cc(-c3cnc4[nH]c(=O)n(CC5CCOCC5)c4c3)cnc2[nH]1 [Example 86, 6-[2-(Ethoxymethyl)-1H-pyrrolo[2,3-b]pyridin-5-yl]-1-(tetrahydro-2H-pyran-4-ylmethyl)-1,3-dihydro-2H-imidazo[4,5-b]pyridin-2-one]",100 to 5000 nM,3000 to 25000 nM
"Cc1c(-c2cnc3[nH]ccc3c2)cnc2[nH]c(=O)n(CC3CCOCC3)c12 [Example 18, 7-Methyl-6-(1H-pyrrolo[2,3-b]pyridin-5-yl)-1-(tetrahydro-2H-pyran-4-ylmethyl)-1,3-dihydro-2H-imidazo[4,5-b]pyridin-2-one]",< 50 nM,< 3000 nM
"CO[C@H]1CCO[C@@H](Cn2c(=O)[nH]c3ncc(-c4cnc5[nH]cc(Cl)c5c4C)cc32)C1 [Example 152, 2,6-Anhydro-1-[6-(3-chloro-4-methyl-1H-pyrrolo[2,3-b]pyridin-5-yl)-2-oxo-2,3-dihydro-1H-imidazo[4,5-b]pyridin-1-yl]-1,3,5-trideoxy-4-O-methyl-L-threo-hexitol]",< 50 nM,< 3000 nM
"O=c1[nH]c2ncc(-c3cnc4[nH]ccc4c3)cc2n1CC(F)C1CCOCC1 (stereo not drawn) [Example 51, 1-[2-Fluoro-2-(tetrahydro-2H-pyran-4-yl)ethyl]-6-(1H-pyrrolo[2,3-b]pyridin-5-yl)-1,3-dihydro-2H-imidazo[4,5-b]pyridin-2-one]",< 50 nM,< 3000 nM
"O=c1[nH]c2ncc(-c3cc4ccccc4[nH]3)cc2n1CC1CCOCC1 [Example 23, 6-(1H-Indol-2-yl)-1-(tetrahydro-2H-pyran-4-ylmethyl)-1,3-dihydro-2H-imidazo[4,5-b]pyridin-2-one]",< 50 nM,< 3000 nM

# Second part, led by results:
IC50 (human mTOR),Compound,GI50 (WM-266-4 cells)
< 50 nM,"C[C@@H]1C[C@H](Cn2c(=O)[nH]c3ncc(-c4cnc5[nH]ccc5c4)cc32)C[C@H](C)O1 [Example 71, 1-{[(2R-4r-6S)-2,6-Dimethyltetrahydro-2H-pyran-4-yl]methyl}-6-(1H-pyrrolo-[2,3-b]pyridin-5-yl)-1,3-dihydro-2H-imidazo[4,5-b]pyridin-2-one]",< 3000 nM
< 50 nM,"O=c1[nH]c2ncc(-c3cnc4[nH]cc(F)c4c3)cc2n1C[C@H]1COCCO1 [Example 118, 1-[(2S)-1,4-Dioxan-2-ylmethyl]-6-(3-fluoro-1H-pyrrolo[2,3-b]pyridin-5-yl)-1,3-dihydro-2H-imidazo[4,5-b]pyridin-2-one]",< 3000 nM
< 50 nM,"CO[C@H]1CCO[C@@H](Cn2c(=O)[nH]c3ncc(-c4cnc5[nH]ccc5c4)cc32)C1 [Example 137, 2,6-Anhydro-1,3,5-trideoxy-4-O-methyl-1-[2-oxo-6-(1H-pyrrolo[2,3-b]pyridin-5-yl)-2,3-dihydro-1H-imidazo[4,5-b]pyridin-1-yl]-L-threo-hexitol]",< 3000 nM
< 50 nM,"O=c1[nH]c2ncc(-c3cnc4[nH]cc(Cl)c4c3)cc2n1C[C@H]1COCCO1 [Example 41, 6-(3-Chloro-1H-pyrrolo[2,3-b]pyridin-5-yl)-1-[(2S)-1,4-dioxan-2-ylmethyl]-1,3-dihydro-imidazo[4,5-b]pyridin-2-one]",< 3000 nM
< 50 nM,"CO[C@@H]1CCC[C@@H](Cn2c(=O)[nH]c3ncc(-c4cnc5[nH]ccc5c4)cc32)C1 (racemic) [Example 104, 1-{[trans-3-Methoxycyclohexyl]methyl}-6-(1H-pyrrolo[2,3-b]pyridin-5-yl)-1,3-dihydro-2H-imidazo[4,5-b]pyridin-2-one]",< 3000 nM
< 50 nM,"Cc1nc2[nH]c(=O)n(CC3CCOCC3)c2cc1-c1cnc2[nH]ccc2c1 [Example 17, 5-Methyl-6-(1H-pyrrolo[2,3-b]pyridin-5-yl)-1-(tetrahydro-2H-pyran-4-ylmethyl)-1,3-dihydro-2H-imidazo[4,5-b]pyridin-2-one]",< 3000 nM
< 50 nM,"O=c1[nH]c2ncc(-c3cc4cc[nH]c4nc3Cl)cc2n1C[C@H]1COCCO1 [Example 127, 6-(6-Chloro-1H-pyrrolo[2,3-b]pyridin-5-yl)-1-[(2S)-1,4-dioxan-2-ylmethyl]-1,3-dihydro-2H-imidazo[4,5-b]pyridin-2-one]",< 3000 nM
< 50 nM,"Cc1c(-c2cnc3[nH]c(=O)n(C[C@H]4COCCO4)c3c2)cnc2[nH]cc(Cl)c12 [Example 125, 6-(3-Chloro-4-methyl-1H-pyrrolo[2,3-b]pyridin-5-yl)-1-[(2S)-1,4-dioxan-2-ylmethyl]-1,3-dihydro-2H-imidazo[4,5-b]pyridin-2-one]",< 3000 nM
< 50 nM,"O=c1[nH]c2ncc(-c3cnc4[nH]ccc4c3)cc2n1CC1CCCOC1 (stereo not drawn) [Example 32, 6-(1H-Pyrrolo[2,3-b]pyridin-5-yl)-1-(tetrahydro-2H-pyran-3-ylmethyl)-1,3-dihydro-2H-imidazo[4,5-b]pyridin-2-one]",< 3000 nM
< 50 nM,"COCC1COC[C@H](Cn2c(=O)[nH]c3ncc(-c4cnc5[nH]ccc5c4C)cc32)O1 (stereo partly drawn) [Example 153, 1-{[(2S)-6-(Methoxymethyl)-1,4-dioxan-2-yl]methyl}-6-(4-methyl-1H-pyrrolo[2,3-b]pyridin-5-yl)-1,3-dihydro-2H-imidazo[4,5-b]pyridin-2-one]",< 3000 nM
< 50 nM,"C[C@@H]1CN(CCn2c(=O)[nH]c3ncc(-c4cnc5[nH]ccc5c4)cc32)C[C@H](C)O1 [Example 53, 1-{2-[cis-2,6-Dimethylmorpholin-4-yl]ethyl}-6-(1H-pyrrolo[2,3-b]pyridin-5-yl)-1,3-dihydro-2H-imidazo[4,5-b]pyridin-2-one]",< 3000 nM
< 50 nM,"O=c1[nH]c2ncc(-c3ccc4[nH]ccc4c3)cc2n1CC1CCCCC1 [Example 6, 1-(Cyclohexylmethyl)-6-(1H-indol-5-yl)-1,3-dihydro-2H-imidazo[4,5-b]pyridin-2-one]",< 3000 nM
